According to US5416191A, “Bradykinin antagonists” (Cortech, Inc., priority 1993, dated 1995):
Read-outs that look alike come from different tables or passages of the source. Peptide text beside a SMILES is read from it.

Assays:
[1] = biological target: T1, bradykinin receptor of the B2 class (guinea-pig ileum) (Cavia porcellus, UniProt O70526)
T1 sequence (O70526 1-372): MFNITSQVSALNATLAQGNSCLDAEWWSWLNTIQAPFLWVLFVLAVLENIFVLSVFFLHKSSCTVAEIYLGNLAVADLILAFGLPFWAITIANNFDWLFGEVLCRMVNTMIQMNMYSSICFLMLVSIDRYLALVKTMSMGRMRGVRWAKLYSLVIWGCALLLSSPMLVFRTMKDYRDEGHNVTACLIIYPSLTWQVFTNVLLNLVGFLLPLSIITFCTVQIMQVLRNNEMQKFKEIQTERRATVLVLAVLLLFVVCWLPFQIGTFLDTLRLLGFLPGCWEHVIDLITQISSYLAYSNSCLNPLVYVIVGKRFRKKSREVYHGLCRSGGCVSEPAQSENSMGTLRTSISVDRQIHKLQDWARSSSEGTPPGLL

[2] = biological target: T2, bradykinin receptor of the B2 class (rat uterus) (Rattus norvegicus, UniProt P25023); assay: Rat uterus (RU) in vitro, antagonism of bradykinin; conditions: for RU % REC: recovery after wash
T2 construct: concentration effect curves to bradykinin (BK) on rat uterus in vitro; from tissue; host or cells: rat uterus
T2 sequence (P25023 1-396): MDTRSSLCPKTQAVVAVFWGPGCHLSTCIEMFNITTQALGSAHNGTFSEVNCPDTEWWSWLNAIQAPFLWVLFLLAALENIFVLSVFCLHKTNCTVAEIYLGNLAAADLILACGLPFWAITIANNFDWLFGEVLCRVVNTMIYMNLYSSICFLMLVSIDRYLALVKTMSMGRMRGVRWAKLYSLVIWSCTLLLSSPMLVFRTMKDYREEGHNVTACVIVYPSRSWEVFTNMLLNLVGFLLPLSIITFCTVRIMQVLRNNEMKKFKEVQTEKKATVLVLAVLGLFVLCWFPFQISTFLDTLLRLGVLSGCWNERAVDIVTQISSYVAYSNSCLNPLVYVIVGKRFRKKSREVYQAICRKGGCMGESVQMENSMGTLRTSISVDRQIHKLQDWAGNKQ
Outline: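 Isolated rat uterus; bradykinin antagonism expressed as pA2, the negative log molar antagonist concentration that halves agonist potency. After the highest antagonist concentration, tissues were washed extensively and percent recovery was recorded.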

[3] = biological target: T1, bradykinin receptor of the B2 class (guinea-pig ileum); conditions: for GPI % REC: recovery after wash, lower = longer duration
[4] = biological target: T3, bradykinin receptor of the B2 class (rabbit jugular vein) (Oryctolagus cuniculus, UniProt Q28642); assay: Rabbit jugular vein (RJV) in vitro, antagonism of bradykinin; conditions: for RJV % REC: recovery after wash
T3 construct: from tissue; host or cells: rabbit jugular vein
T3 sequence (Q28642 1-367): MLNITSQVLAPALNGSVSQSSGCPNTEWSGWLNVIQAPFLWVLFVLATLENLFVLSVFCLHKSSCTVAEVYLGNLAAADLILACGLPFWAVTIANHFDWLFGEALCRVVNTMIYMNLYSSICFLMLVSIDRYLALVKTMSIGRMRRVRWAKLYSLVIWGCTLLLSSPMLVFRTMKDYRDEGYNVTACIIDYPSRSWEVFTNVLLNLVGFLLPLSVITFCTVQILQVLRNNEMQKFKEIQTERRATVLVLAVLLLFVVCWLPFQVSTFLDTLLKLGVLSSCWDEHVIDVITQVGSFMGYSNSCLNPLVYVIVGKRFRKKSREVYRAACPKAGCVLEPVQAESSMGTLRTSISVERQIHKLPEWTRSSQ
Description: Thus in vitro studies were performed on standard assay systems, namely, guinea-pig ileum (GPI), rat uterus (RU) and rabbit jugular vein (RJV). […] The potency of each compound was assessed as a pA2 value according to the method of Arunlakshana & Schild, Br. J. Pharmacol. Chemother., 14:48-58 (1959). The PA2 can be defined as the negative logarithm of the molar concentration of the antagonist in the presence of which the potency of the agonist is reduced two-fold, i.e. twice the amount of agonist is required to produce a given response in the presence of, than in the absence of, the antagonist. A high potency of antagonism is indicated by a high PA2 value, i.e., a low concentration of antagonist is effective.
The percentage recovery (% Rec) was also determined for compounds with respect to each assay. Percentage recovery is a measure of the duration of action, the lower the percentage recovery value, the greater the duration of action of the compound.

[5] = test system: bradykinin-induced hypotension; assay: Bradykinin-induced hypotension in the anesthetized rat; type: in vivo; conditions: intravenous infusion 25 μg kg^-1 min^-1; bradykinin 4×10^-9 moles; FIG. 3
[6] = test system: bradykinin-induced vascular permeability; assay: Rabbit skin vascular permeability (Evans Blue, intradermal bradykinin); type: in vivo
Description: In these experiments, two protocols were used. The first protocol used the classical assay in which bradykinin was injected intradermally either alone or in combination with the compound under investigation following intravenous administration of Evans Blue dye. Thirty minutes after intradermal injection of bradykinin with and without the compound, the animal was killed, its skin removed and the area of "blueing" (i.e., vascular permeability or edema) measured.
The second protocol involved pre-injecting the test compound either 15 or 30 minutes before injecting bradykinin in the same site. The results are shown in FIGS. 2B and 2C, respectively.

[7] = Table A, read-out: RJV pA2 (converted)

## CC(C)C[C@H](NC(=O)[C@@H](Cc1ccccc1)NC(=O)[C@H](CO)NC(=O)[C@H](Cc1ccccc1)NC(=O)CNC(=O)[C@@H]1C[C@@H](O)CN1C(=O)[C@@H]1CCCN1C(=O)[C@H](CCCNC(=N)N)NC(=O)[C@H](N)CCCNC(=N)N)C(=O)N[C@@H](CCCNC(=N)N)C(=O)O [CP-0088, dARG^0 -Arg^1 -Pro^2 -Hyp^3 -Gly^4 -Phe^5 -Ser^6 -(d)Phe^7 -Leu^8 -Arg^9, reference compound] (HELM PEPTIDE1{[dR].R.P.[Hyp].G.F.S.[dF].L.R}$$$$V2.0)
[1]
  Kb: 251 nM
[2]; Table A, read-out: RU pA2 (converted)
  Kb: 39.8 nM
[2]; Table A
  RU % REC: 100%
[2]; Table C, rat uterus
  % REC MONOMER: 100%
[2]; Table C, rat uterus, P.A. = Partial Agonist
  pA2 MONOMER: 7.4
[2]; Table F
  RAT UTERUS pA2: 7.4
[2]; Table F, rat uterus
  % RECOVERY: 100%
[3]; Table A
  GPI % REC: 100%
[4]; [7]
  Kb: 3.16 nM
[4]; Table A
  RJV % REC: 90%

## CC(C)C[C@H](NC(=O)[C@@H](Cc1ccccc1)NC(=O)[C@H](CS)NC(=O)[C@H](Cc1ccccc1)NC(=O)CNC(=O)[C@@H]1C[C@@H](O)CN1C(=O)[C@@H]1CCCN1C(=O)[C@H](CCCNC(=N)N)NC(=O)[C@H](N)CCCNC(=N)N)C(=O)N[C@@H](CCCNC(=N)N)C(=O)O [CP-0126] (HELM PEPTIDE1{[dR].R.P.[Hyp].G.F.C.[dF].L.R}$$$$V2.0)
[5]
  Inhibition of hypotensive response to bradykinin: almost totally ineffective
[1]
  Kb: 501 nM
[1]; GPI pA2, Table A
  Kb: 398 nM
[2]; rat uterus, after highest antagonist concentration, FIGS. 1A/1B
  Recovery of bradykinin concentration effect curve after washing: almost returns to that seen in the control
[3]
  GPI pA2: ≈ 6.3
[4]
  Kb: 1.58 nM
[4]; Table A
  RJV % REC: 60%
[6]; intradermal, injected in combination with bradykinin, FIG. 2A
  Inhibition of bradykinin-induced vascular permeability, co-injected: more potent than CP-0127
[6]; pre-injected 15 or 30 minutes before bradykinin in the same site, FIGS. 2B/2C
  Inhibition of bradykinin-induced vascular permeability, pre-injected: significantly less effective

## CC(C)C[C@H](NC(=O)[C@@H](Cc1ccccc1)NC(=O)[C@H](CSC1CC(=O)N(CCCCCCN2C(=O)CC(SC[C@H](NC(=O)[C@H](Cc3ccccc3)NC(=O)CNC(=O)[C@@H]3C[C@@H](O)CN3C(=O)[C@@H]3CCCN3C(=O)[C@H](CCCNC(=N)N)NC(=O)[C@H](N)CCCNC(=N)N)C(=O)N[C@H](Cc3ccccc3)C(=O)N[C@@H](CC(C)C)C(=O)N[C@@H](CCCNC(=N)N)C(=O)O)C2=O)C1=O)NC(=O)[C@H](Cc1ccccc1)NC(=O)CNC(=O)[C@@H]1C[C@@H](O)CN1C(=O)[C@@H]1CCCN1C(=O)[C@H](CCCNC(=N)N)NC(=O)[C@H](N)CCCNC(=N)N)C(=O)N[C@@H](CCCNC(=N)N)C(=O)O (some centres unmarked) [CP-0127] (HELM PEPTIDE1{[dR].R.P.[Hyp].G.F.C.[dF].L.R}|PEPTIDE2{[dR].R.P.[Hyp].G.F.C.[dF].L.R}|CHEM1{[O=C1CC([*:1])C(=O)N1CCCCCCN1C(=O)CC([*:2])C1=O]}$PEPTIDE1,CHEM1,7:R3-1:R1|PEPTIDE2,CHEM1,7:R3-1:R2$$$V2.0)
[1]; pA2 GUINEA PIG ILEUM, Table B, Cys position scan, monomers and BMH dimers
  Kb: ~20 nM
[2]; Table A
  RU % REC: 50%
[2]; Table C, rat uterus
  % REC DIMER: 50%
  pA2 DIMER: 8.8
[2]; Table D, 40 min
  % REC (40 MIN): 50%
[2]; Table D, effect of linker length
  pA2 (UTERUS): 8.8
[2]; Table E
  RAT UTERUS % RECOVERED: 50%
  RAT UTERUS pA2: 8.8
[2]; Table F, rat uterus
  % RECOVERY: 50%
[3]; Table A
  GPI pA2: 7.7
  GPI % REC: 100%
[4]; [7]
  Kb: 0.0316 nM
[4]; Table A
  RJV % REC: 10%
